Data from patent US20040014066A1, “Screening system” (priority 2000, published 2004).
Entries after “also recorded” stand apart in the source; their conditions may differ. Positions of bridges follow the written chain, without caps; N, C: chain ends. Non-standard residues stand in square brackets, D forms with d. Residues, ends and D or L forms follow the SMILES beside them. *: point of attachment. Ileψ(thiazoline)Cys = CC[C@H](C)[C@H](N)C1=N[C@H](C(=O)*)CS1; dOrn = NCCC[C@@H](N)C(=O)O

Test system: sigE promoter
Assay: sigE promoter bioassay: sigEp-neo fusion (pIJ6880) in M600, paper discs on MMT medium with lethal kanamycin, halo of kanamycin-resistant growth
Format: cell-based, Streptomyces coelicolor A3(2)
Details: for induction of the sigE promoter (halo of kanamycin-resistant growth), in words: M600 carrying pIJ6880, MMT medium, kanamycin 100 μg ml^−1, paper disc; for potency as inducer of the sigE promoter, in words: M600 carrying pIJ6880, kanamycin 100 μg ml^−1, paper disc
Method: To see if the sigE promoter could be induced by control-antibiotics known to target the cell envelope, spores of M600 carrying pIJ6880 were spread on MMT medium carrying a lethal concentration of kanamycin (100 μg ml^−1) and potential inducers were applied on paper discs to the freshly spread plates.
In order to perform the assay of the invention,spores of the host microorganism, for example, M600 carrying pIJ6880, are spread on MMT medium carrying a lethal concentration of kanamycin (100 μg ml^−1)at concentration of approximately 5×10^6/12 cm^2 plate. Test compound is applied on paper discs to a number of freshly spread plates in parallel using a different concentration of the test compound in each plate.

Row | Compound | induction of the sigE promoter (halo of kanamycin-resistant growth), in words | other results
1 | CC1(C)S[C@@H]2[C@H](NC(=O)[C@H](N)c3ccc(O)cc3)C(=O)N2[C@H]1C(=O)O [Amoxycillin] | induced a halo of kanamycin-resistant growth | 
2 | CC1(C)S[C@@H]2[C@H](NC(=O)[C@H](N)c3ccccc3)C(=O)N2[C@H]1C(=O)O [Ampicillin] | found to induce the sigE promoter | 
3 | CC[C@H](C)[C@H](N)C1=N[C@H](C(=O)N[C@@H](CC(C)C)C(=O)N[C@H](CCC(=O)O)C(=O)N[C@H](C(=O)N[C@H]2CCCCNC(=O)[C@H](CC(N)=O)NC(=O)[C@@H](CC(=O)O)NC(=O)[C@H](Cc3cnc[nH]3)NC(=O)[C@@H](Cc3ccccc3)NC(=O)[C@H]([C@@H](C)CC)NC(=O)[C@@H](CCCN)NC2=O)[C@@H](C)CC)CS1 [Bacitracin] ({Ileψ(thiazoline)Cys}-L[dE]IK[dOrn]I[dF]H[dD]N; lactam 4-C) | found to induce the sigE promoter | potency as inducer of the sigE promoter, in words: particularly potent inducers
4 | N[C@@H](C(=O)N[C@@H]1C(=O)N2C(C(=O)O)=C(Cl)CS[C@H]12)c1ccccc1 [Cefaclor] | found to induce the sigE promoter | 
5 | CC1=C(C(=O)O)N2C(=O)[C@@H](NC(=O)[C@H](N)c3ccc(O)cc3)[C@H]2SC1 [Cefadroxil] | found to induce the sigE promoter | 
6 | CC1=C(C(=O)O)N2C(=O)[C@@H](NC(=O)[C@H](N)c3ccccc3)[C@H]2SC1 [Cephalexin] | found to induce the sigE promoter | 
7 | CC1=C(C(=O)O)N2C(=O)[C@@H](NC(=O)[C@H](N)C3=CCC=CC3)[C@H]2SC1 [Cepharadine] | found to induce the sigE promoter | 
8 | CO[C@@H]1[C@@H](OC(N)=O)[C@@H](O)[C@H](Oc2ccc3c(O)c(NC(=O)c4ccc(O)c(CC=C(C)C)c4)c(=O)oc3c2C)OC1(C)C [Novobiocin] | do not induce a halo | 
9 | CC1(C)S[C@@H]2[C@H](NC(=O)Cc3ccccc3)C(=O)N2[C@H]1C(=O)O [Penicillin G] | induced a halo of kanamycin-resistant growth; also recorded: found to induce the sigE promoter | 
10 | [H]/N=C(/N)N[C@H]1[C@H](O)[C@@H](O)[C@H](O[C@@H]2O[C@@H](C)[C@](O)(C=O)[C@H]2O[C@@H]2O[C@@H](CO)[C@H](O)[C@@H](O)[C@@H]2NC)[C@@H](N/C(N)=N\[H])[C@@H]1O [Streptomycin] | do not induce a halo | 
11 | C=C(NC(=O)C(=C)NC(=O)c1csc(C2=N[C@@H]3c4csc(n4)[C@H]4NC(=O)c5csc(n5)[C@H]([C@](C)(O)[C@@H](C)O)NC(=O)[C@H]5CSC(=N5)/C(=C/C)NC(=O)[C@H]([C@@H](C)O)NC(=O)c5csc(n5)[C@]3(CC2)NC(=O)[C@H](C)NC(=O)C(=C)NC(=O)[C@H](C)NC(=O)[C@H]([C@@H](C)CC)N[C@@H]2C=Cc3c([C@H](C)O)cc(nc3[C@H]2O)C(=O)O[C@@H]4C)n1)C(N)=O [Thiostrepton] | do not induce a halo | 
12 | CC1(C)S[C@@H]2[C@H](NC(=O)[C@H](C(=O)O)c3ccsc3)C(=O)N2[C@H]1C(=O)O [Ticarcillin] | induced a halo of kanamycin-resistant growth; also recorded: found to induce the sigE promoter | 
13 | CN[C@H](CC(C)C)C(=O)N[C@H]1C(=O)N[C@@H](CC(N)=O)C(=O)N[C@H]2C(=O)N[C@H]3C(=O)N[C@H](C(=O)N[C@H](C(=O)O)c4cc(O)cc(O)c4-c4cc3ccc4O)[C@H](O)c3ccc(c(Cl)c3)Oc3cc2cc(c3O[C@@H]2O[C@H](CO)[C@@H](O)[C@H](O)[C@H]2O[C@H]2C[C@](C)(N)[C@H](O)[C@H](C)O2)Oc2ccc(cc2Cl)[C@H]1O [Vancomycin] | induced a halo of kanamycin-resistant growth; also recorded: found to induce the sigE promoter | potency as inducer of the sigE promoter, in words: particularly potent inducers; signs of toxicity to the reporter strain while acting as inducer (halo grows to the edge of the disc) (paper disc, FIG. 2): without showing any signs of toxicity
14 | Cc1onc(-c2ccccc2)c1C(=O)N[C@@H]1C(=O)N2[C@@H]1SC(C)(C)[C@@H]2C(=O)O [oxacillin] | found to induce the sigE promoter | 
15 | Ristocetin | induced a halo of kanamycin-resistant growth; also recorded: found to induce the sigE promoter | potency as inducer of the sigE promoter, in words: particularly potent inducers; amount giving a positive reaction in the bioassay (initial assessment of sensitivity) (sigE promoter bioassay): 75 ng
16 | Teicoplanin | induced a halo of kanamycin-resistant growth; also recorded: found to induce the sigE promoter | potency as inducer of the sigE promoter, in words: particularly potent inducers
17 | lysozyme | acted as an inducer | 
